Reference: patent US12421210B2, “Fused bicyclic heterocycles as therapeutic agents” (NEW YORK UNIVERSITY, priority 2018, dated 2025)

Biological target: human NAMPT enzyme (His-hNAMPT) (Homo sapiens (Human), UniProt P43490)
Test: NAMPT enzymatic inhibition assay (fluorescence, NADH product)
Format: biochemical
Conditions: [BPS]; read-out: NAMPT IC50 (μM) [BPS]

Sequence of human NAMPT enzyme (His-hNAMPT) (P43490 whole entry): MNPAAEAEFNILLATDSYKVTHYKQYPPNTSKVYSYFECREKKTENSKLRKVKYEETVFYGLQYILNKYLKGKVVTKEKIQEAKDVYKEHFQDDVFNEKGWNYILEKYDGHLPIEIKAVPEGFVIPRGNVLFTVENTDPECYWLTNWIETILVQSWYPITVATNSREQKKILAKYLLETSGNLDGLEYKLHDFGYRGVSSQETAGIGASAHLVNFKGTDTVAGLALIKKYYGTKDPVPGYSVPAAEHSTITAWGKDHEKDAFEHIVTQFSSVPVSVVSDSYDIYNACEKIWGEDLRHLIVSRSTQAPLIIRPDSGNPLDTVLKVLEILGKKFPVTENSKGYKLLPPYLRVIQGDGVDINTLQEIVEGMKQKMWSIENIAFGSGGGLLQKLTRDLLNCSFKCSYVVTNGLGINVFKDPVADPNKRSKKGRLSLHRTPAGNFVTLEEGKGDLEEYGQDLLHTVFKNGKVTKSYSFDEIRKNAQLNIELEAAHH

| IC50 | SMILES |
| --- | --- |
| 0.01 to 0.49 µM | Nc1ccc(/C=C/C(=O)NCC[C@@H]2[C@H]3CN(c4ncccn4)C[C@@H]23)cn1 [Example 189, (E)-3-(6-aminopyridin-3-yl)-N-(2-((1R,5S,6s)-3-(pyrimidin-2-yl)-3-azabicyclo[3.1.0]hexan-6-yl)ethyl)acrylamide] |
| 0.01 to 0.49 µM | Nc1ccc(/C=C/C(=O)NCC[C@@H]2[C@H]3CN(c4nc5ccccc5s4)C[C@@H]23)cn1 [Example 190, (E)-3-(6-aminopyridin-3-yl)-N-(2-((1R,5S,6s)-3-(benzo[d]thiazol-2-yl)-3-azabicyclo[3.1.0]hexan-6-yl)ethyl)acrylamide] |
| 0.01 to 0.49 µM | Nc1ccc(/C=C/C(=O)NCC[C@@H]2[C@H]3CN(c4cccc5ccccc45)C[C@@H]23)cn1 [Example 191, (E)-3-(6-aminopyridin-3-yl)-N-(2-((1R,5S,6s)-3-(naphthalen-1-yl)-3-azabicyclo[3.1.0]hexan-6-yl)ethyl)acrylamide] |
| 0.01 to 0.49 µM | Nc1ccc(/C=C/C(=O)NCC[C@@H]2[C@H]3CN(c4ccccc4)C[C@@H]23)cn1 [Example 192, (E)-3-(6-aminopyridin-3-yl)-N-(2-((1R,5S,6s)-3-phenyl-3-azabicyclo[3.1.0]hexan-6-yl)ethyl)acrylamide] |

Same assay, conditions: [HDB]; read-out: NAMPT IC50 (μM) [HDB]

| SMILES | IC50 |
| --- | --- |
| O=C(/C=C/c1cccnc1)NCC[C@@H]1[C@H]2CN(c3ncc(F)c(Cl)n3)C[C@@H]12 [Example 188, (E)-N-(2-((1R,5S,6s)-3-(4-chloro-5-fluoropyrimidin-2-yl)-3-azabicyclo[3.1.0]hexan-6-yl)ethyl)-3-(pyridin-3-yl)acrylamide] | < 0.01 µM |
| O=C(NCC[C@@H]1[C@H]2CN(c3ccccc3)C[C@@H]12)c1cc2ccncc2o1 [Example 193, N-(2-((1R,5S,6s)-3-phenyl-3-azabicyclo[3.1.0]hexan-6-yl)ethyl)furo[2,3-c]pyridine-2-carboxamide] | < 0.01 µM |
| O=C(NCC[C@@H]1[C@H]2CN(c3ncccn3)C[C@@H]12)c1cc2cnccc2[nH]1 [Example 194, N-(2-((1R,5S,6s)-3-(pyrimidin-2-yl)-3-azabicyclo[3.1.0]hexan-6-yl)ethyl)-1H-pyrrolo[3,2-c]pyridine-2-carboxamide] | 0.01 to 0.49 µM |
| O=C(/C=C/c1cccnc1)NCC[C@@H]1[C@H]2CN(c3ccc(F)cc3)C[C@@H]12 [Example 195, (E)-N-(2-((1R,5S,6s)-3-(4-fluorophenyl)-3-azabicyclo[3.1.0]hexan-6-yl)ethyl)-3-(pyridin-3-yl)acrylamide] | 0.01 to 0.49 µM |
| O=C(NCC[C@@H]1[C@H]2CN(c3ccc(F)cc3)C[C@@H]12)c1cc2ccncc2o1 [Example 196, N-(2-((1R,5S,6s)-3-(4-fluorophenyl)-3-azabicyclo[3.1.0]hexan-6-yl)ethyl)furo[2,3-c]pyridine-2-carboxamide] | 0.01 to 0.49 µM |
| O=C(NCC[C@@H]1[C@H]2CN(c3cccc(F)c3)C[C@@H]12)c1cc2ccncc2o1 [Example 197, N-(2-((1R,5S,6s)-3-(3-fluorophenyl)-3-azabicyclo[3.1.0]hexan-6-yl)ethyl)furo[2,3-c]pyridine-2-carboxamide] | 0.01 to 0.49 µM |
| O=C(NCC[C@@H]1[C@H]2CN(c3ccccc3)C[C@@H]12)c1cc2cnccc2[nH]1 [Example 198, N-(2-((1R,5S,6s)-3-phenyl-3-azabicyclo[3.1.0]hexan-6-yl)ethyl)-1H-pyrrolo[3,2-c]pyridine-2-carboxamide] | 0.01 to 0.49 µM |
| O=C(NCC[C@@H]1[C@H]2CN(c3ncccn3)C[C@@H]12)c1cnc2nccn2c1 [Example 199, N-(2-((1R,5S,6s)-3-(pyrimidin-2-yl)-3-azabicyclo[3.1.0]hexan-6-yl)ethyl)imidazo[1,2-a]pyrimidine-6-carboxamide] | 0.01 to 0.49 µM |
| O=C(NCC[C@@H]1[C@H]2CN(c3ncccn3)C[C@@H]12)c1cc2ccncc2s1 [Example 200, N-(2-((1R,5S,6s)-3-(pyrimidin-2-yl)-3-azabicyclo[3.1.0]hexan-6-yl)ethyl)thieno[2,3-c]pyridine-2-carboxamide] | 0.01 to 0.49 µM |
| Nc1ccc(/C=C/C(=O)NCC[C@@H]2[C@H]3CN(c4cccc(F)c4)C[C@@H]23)cn1 [Example 201, (E)-3-(6-aminopyridin-3-yl)-N-(2-((1R,5S,6s)-3-(3-fluorophenyl)-3-azabicyclo[3.1.0]hexan-6-yl)ethyl)acrylamide] | < 0.01 µM |
| Nc1ccc(/C=C/C(=O)NCC[C@@H]2[C@H]3CN(c4cccc(C(F)(F)F)c4)C[C@@H]23)cn1 [Example 202, (E)-3-(6-aminopyridin-3-yl)-N-(2-((1R,5S,6s)-3-(3-(trifluoromethyl)phenyl)-3-azabicyclo[3.1.0]hexan-6-yl)ethyl)acrylamide] | 0.01 to 0.49 µM |
| O=C(NCC[C@@H]1[C@H]2CN(c3nc(Cl)ncc3F)C[C@@H]12)c1ccc2nccn2c1 [Example 203, N-(2-((1R,5S,6s)-3-(2-chloro-5-fluoropyrimidin-4-yl)-3-azabicyclo[3.1.0]hexan-6-yl)ethyl)imidazo[1,2-a]pyridine-6-carboxamide] | 0.01 to 0.49 µM |
| O=C(NCC[C@@H]1[C@H]2CN(c3nc(Cl)ncc3F)C[C@@H]12)c1cc2cnccc2[nH]1 [Example 204, N-(2-((1R,5S,6s)-3-(2-chloro-5-fluoropyrimidin-4-yl)-3-azabicyclo[3.1.0]hexan-6-yl)ethyl)-1H-pyrrolo[3,2-c]pyridine-2-carboxamide] | 0.01 to 0.49 µM |
| O=C(NCC[C@@H]1[C@H]2CN(c3nc(Cl)ncc3F)C[C@@H]12)c1ccc2ncnn2c1 [Example 217, N-(2-((1R,5S,6s)-3-(2-chloro-5-fluoropyrimidin-4-yl)-3-azabicyclo[3.1.0]hexan-6-yl)ethyl)-[1,2,4]triazolo[1,5-a]pyridine-6-carboxamide] | 0.01 to 0.49 µM |

Results, then the compound that gave them:

| IC50 | SMILES |
| --- | --- |
| 0.01 to 0.49 µM | Nc1ccc(/C=C/C(=O)NCC[C@@H]2[C@H]3CN(c4nc(Cl)ncc4F)C[C@@H]23)cn1 [Example 206, (E)-3-(6-aminopyridin-3-yl)-N-(2-((1R,5S,6s)-3-(2-chloro-5-fluoropyrimidin-4-yl)-3-azabicyclo[3.1.0]hexan-6-yl)ethyl)acrylamide] |
| < 0.01 µM | O=C(CCc1cccnc1)NCC[C@@H]1[C@H]2CN(c3nc(Cl)ncc3F)C[C@@H]12 [Example 207, N-(2-((1R,5S,6s)-3-(2-chloro-5-fluoropyrimidin-4-yl)-3-azabicyclo[3.1.0]hexan-6-yl)ethyl)-3-(pyridin-3-yl)propanamide] |
| < 0.01 µM | O=C(NCC[C@@H]1[C@H]2CN(c3nc(Cl)ncc3F)C[C@@H]12)c1cc(-c2cccnc2)on1 [Example 208, N-(2-((1R,5S,6s)-3-(2-chloro-5-fluoropyrimidin-4-yl)-3-azabicyclo[3.1.0]hexan-6-yl)ethyl)-5-(pyridin-3-yl)isoxazole-3-carboxamide] |
| 0.01 to 0.49 µM | O=C(/C=C/c1ccccn1)NCC[C@@H]1[C@H]2CN(c3nc(Cl)ncc3F)C[C@@H]12 [Example 209, (E)-N-(2-((1R,5S,6s)-3-(2-chloro-5-fluoropyrimidin-4-yl)-3-azabicyclo[3.1.0]hexan-6-yl)ethyl)-3-(pyridin-2-yl)acrylamide] |
| 0.01 to 0.49 µM | O=C(/C=C/c1ccccc1)NCC[C@@H]1[C@H]2CN(c3nc(Cl)ncc3F)C[C@@H]12 [Example 210, N-(2-((1R,5S,6s)-3-(2-chloro-5-fluoropyrimidin-4-yl)-3-azabicyclo[3.1.0]hexan-6-yl)ethyl)cinnamamide] |
| 0.01 to 0.49 µM | O=C(/C=C/c1ccc(O)nc1)NCC[C@@H]1[C@H]2CN(c3nc(Cl)ncc3F)C[C@@H]12 [Example 211, (E)-N-(2-((1R,5S,6s)-3-(2-chloro-5-fluoropyrimidin-4-yl)-3-azabicyclo[3.1.0]hexan-6-yl)ethyl)-3-(6-hydroxypyridin-3-yl)acrylamide] |
| 0.01 to 0.49 µM | COc1ccc(/C=C/C(=O)NCC[C@@H]2[C@H]3CN(c4nc(Cl)ncc4F)C[C@@H]23)cn1 [Example 212, (E)-N-(2-((1R,5S,6s)-3-(2-chloro-5-fluoropyrimidin-4-yl)-3-azabicyclo[3.1.0]hexan-6-yl)ethyl)-3-(6-methoxypyridin-3-yl)acrylamide] |
| 0.01 to 0.49 µM | O=C(NCC[C@@H]1[C@H]2CN(c3nc(Cl)ncc3F)C[C@@H]12)c1cnc2nccn2c1 [Example 213, N-(2-((1R,5S,6s)-3-(2-chloro-5-fluoropyrimidin-4-yl)-3-azabicyclo[3.1.0]hexan-6-yl)ethyl)imidazo[1,2-a]pyrimidine-6-carboxamide] |
| 0.01 to 0.49 µM | O=C(/C=C/c1ccncc1)NCC[C@@H]1[C@H]2CN(c3nc(Cl)ncc3F)C[C@@H]12 [Example 214, (E)-N-(2-((1R,5S,6s)-3-(2-chloro-5-fluoropyrimidin-4-yl)-3-azabicyclo[3.1.0]hexan-6-yl)ethyl)-3-(pyridin-4-yl)acrylamide] |
| 1 to 29 µM | O=C(CCc1ccncc1)NCC[C@@H]1[C@H]2CN(c3nc(Cl)ncc3F)C[C@@H]12 [Example 215, N-(2-((1R,5S,6s)-3-(2-chloro-5-fluoropyrimidin-4-yl)-3-azabicyclo[3.1.0]hexan-6-yl)ethyl)-3-(pyridin-4-yl)propanamide] |
| 0.01 to 0.49 µM | O=C(CCc1ccccn1)NCC[C@@H]1[C@H]2CN(c3nc(Cl)ncc3F)C[C@@H]12 [Example 218, N-(2-((1R,5S,6s)-3-(2-chloro-5-fluoropyrimidin-4-yl)-3-azabicyclo[3.1.0]hexan-6-yl)ethyl)-3-(pyridin-2-yl)propanamide] |
| 0.01 to 0.49 µM | O=C(COc1cccnc1)NCC[C@@H]1[C@H]2CN(c3nc(Cl)ncc3F)C[C@@H]12 [Example 219, N-(2-((1R,5S,6s)-3-(2-chloro-5-fluoropyrimidin-4-yl)-3-azabicyclo[3.1.0]hexan-6-yl)ethyl)-2-(pyridin-3-yloxy)acetamide] |
| 0.01 to 0.49 µM | O=C(NCC[C@@H]1[C@H]2CN(c3nc(Cl)ncc3F)C[C@@H]12)c1cc2c(nc3sccn32)s1 [Example 220, N-(2-((1R,5S,6s)-3-(2-chloro-5-fluoropyrimidin-4-yl)-3-azabicyclo[3.1.0]hexan-6-yl)ethyl)thieno[2′,3′:4,5]imidazo[2,1-b]thiazole-2-carboxamide] |
| 0.01 to 0.49 µM | O=C(NCC[C@@H]1[C@H]2CN(c3nc(Cl)ncc3F)C[C@@H]12)c1cc2ccncc2o1 [Example 221, N-(2-((1R,5S,6s)-3-(2-chloro-5-fluoropyrimidin-4-yl)-3-azabicyclo[3.1.0]hexan-6-yl)ethyl)furo[2,3-c]pyridine-2-carboxamide] |
